From ChEMBL document CHEMBL1201862, “PubChem BioAssay data set” (2004)
The source made the active and inactive calls.

Assays:
[1] = viability of uninfected HEp-2 cells – cell-based, HTS, cytotoxicity control for RSV inhibitor project, dose response (AID 2410); format: functional; conditions: human respiratory syncytial virus
[2] = target: T1, Rac GTPase-activating protein 1 (Homo sapiens, UniProt Q9H0H5); experiment: blockers of MgcRacGAP-driven Rac1 GTP hydrolysis – biochemical, ADP Hunter fluorescence, primary and confirmatory, confirmation (AID 624330); format: functional
T1 sequence (Q9H0H5 whole entry): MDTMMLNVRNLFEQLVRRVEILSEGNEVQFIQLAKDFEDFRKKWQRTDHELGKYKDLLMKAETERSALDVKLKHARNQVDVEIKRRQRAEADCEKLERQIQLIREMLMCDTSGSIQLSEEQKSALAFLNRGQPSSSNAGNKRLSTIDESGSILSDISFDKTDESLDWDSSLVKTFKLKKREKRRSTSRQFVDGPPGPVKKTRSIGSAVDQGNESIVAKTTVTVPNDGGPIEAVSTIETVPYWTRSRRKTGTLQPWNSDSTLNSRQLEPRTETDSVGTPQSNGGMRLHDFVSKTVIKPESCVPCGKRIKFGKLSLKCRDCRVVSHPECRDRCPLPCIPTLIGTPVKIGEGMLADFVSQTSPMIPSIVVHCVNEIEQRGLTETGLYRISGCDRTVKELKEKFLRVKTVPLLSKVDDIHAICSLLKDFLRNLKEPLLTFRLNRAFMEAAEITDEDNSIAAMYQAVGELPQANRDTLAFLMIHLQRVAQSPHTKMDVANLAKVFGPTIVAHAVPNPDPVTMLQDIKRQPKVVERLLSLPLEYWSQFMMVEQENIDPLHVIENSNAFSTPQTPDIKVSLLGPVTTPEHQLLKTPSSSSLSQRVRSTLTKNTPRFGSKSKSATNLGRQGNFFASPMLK

HEK293 = experiment: EBV LMP1 TES2 canonical NF-kB signalling blockers – cell-based, HEK293, luciferase, cherry-pick, dose response (AID 588343); format: functional; conditions: Homo sapiens
[3] = Luminescence Cell-Based Dose Response HTS to Identify Inhibitors of 5'UTR Stem-Loop Driven Prion Protein mRNA Translation in H4 Neuroglioblastoma Cells. [Related pubchem assays: 1827 (Project Summary), 1813 (Primary HTS)]; format: functional
[4] = alpha-synuclein stem-loop luciferase translation blockers – H4 neuroglioma cells, luminescence, confirmation (AID 1988); format: functional, cell-based
[5] = target: Luciferin 4-monooxygenase (Photinus pyralis, UniProt P08659); experiment: inhibition of purified Photinus pyralis luciferase – biochemical, luminescence, dose response (AID 1891)
[6] = Luminescence Cell-Based Dose Confirmation HTS to Identify Inhibitors of Platelet Dense Granule Release. [Related pubchem assays: 1663 (Primary HTS), 1678 (Summary of Project)]; format: functional
Protein skinhead-1 = target: T2, Protein skinhead-1 (Caenorhabditis elegans, UniProt P34707); format: functional
T2 sequence (P34707 whole entry): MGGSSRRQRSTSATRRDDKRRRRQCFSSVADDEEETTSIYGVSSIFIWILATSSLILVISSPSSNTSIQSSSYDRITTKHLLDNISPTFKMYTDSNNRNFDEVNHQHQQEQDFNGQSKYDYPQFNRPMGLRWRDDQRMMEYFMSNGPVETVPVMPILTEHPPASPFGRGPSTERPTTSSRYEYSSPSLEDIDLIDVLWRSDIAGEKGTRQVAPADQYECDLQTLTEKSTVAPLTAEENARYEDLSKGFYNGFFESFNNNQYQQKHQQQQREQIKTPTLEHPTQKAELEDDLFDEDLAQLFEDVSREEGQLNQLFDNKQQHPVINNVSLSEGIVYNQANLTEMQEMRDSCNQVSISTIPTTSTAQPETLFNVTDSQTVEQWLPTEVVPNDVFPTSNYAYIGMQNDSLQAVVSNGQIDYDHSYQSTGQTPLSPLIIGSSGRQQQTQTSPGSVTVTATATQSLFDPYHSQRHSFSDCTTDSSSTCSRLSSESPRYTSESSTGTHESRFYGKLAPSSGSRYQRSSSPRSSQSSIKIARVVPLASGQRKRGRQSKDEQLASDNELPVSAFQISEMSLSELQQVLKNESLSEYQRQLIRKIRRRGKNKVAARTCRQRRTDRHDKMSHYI

[7] = target: T3, Ubiquitin-conjugating enzyme E2 N (Homo sapiens, UniProt P61088); format: functional;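 further: Dose-response confirmation in a TR-FRET assay detecting UBC13-driven polyubiquitin chain formation, inhibition measured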
T3 sequence (P61088 whole entry): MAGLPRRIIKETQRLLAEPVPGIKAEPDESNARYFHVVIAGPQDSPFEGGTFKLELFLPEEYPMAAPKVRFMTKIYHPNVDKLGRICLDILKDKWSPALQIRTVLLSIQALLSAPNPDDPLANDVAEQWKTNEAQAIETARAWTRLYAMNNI

Paired box protein Pax-8 = Paired box protein Pax-8 (Homo sapiens, UniProt Q06710); experiment: PAX8 transcriptional activity inhibition in RMG-I – RMG-I cells, luciferase, cherry-pick, dose response (AID 687027); format: functional, cell-based;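 further: luciferase reporter driven by Pax8 target thyroperoxidase promoter measured by SteadyGlo luminescence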
[8] = Trypanosoma cruzi growth suppression in host cells – NIH3T3 host cells, beta-gal luminescence, confirmation (AID 2044); format: functional, cell-based;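 further: intracellular parasites grown in NIH/3T3 mouse fibroblasts as host cells; luminescent beta-galactosidase reporter signal from transgenic T. cruzi replicating inside host cells; inhibitors lower the luminescence signal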
[9] = NIH3T3 cell viability loss – ATP luminescence, mouse fibroblasts, counter-screen, dose response (AID 2010); format: functional, cell-based;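 further: cells exposed to compound for about 90 hours before reading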
cells = format: functional
[10] = system: Streptococcus sp. 'group A'; experiment: Streptococcus pyogenes SK(-)GAS viability under kanamycin – luminescence, BacTiterGlo, confirmation, counter-screen for streptokinase expression inhibitor project, dose response (AID 1900); format: functional, organism-based
Streptokinase A = target: T4, Streptokinase A (Streptococcus pyogenes serotype M1, UniProt P10520); experiment: viability-normalized secreted streptokinase activity reduction – plasminogen activation absorbance, OD405, dose response (AID 1914); format: functional, Streptococcus pyogenes M1 GAS;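 further: secreted streptokinase activity via plasminogen activation per viability signal from cell pellet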
T4 sequence (P10520 whole entry): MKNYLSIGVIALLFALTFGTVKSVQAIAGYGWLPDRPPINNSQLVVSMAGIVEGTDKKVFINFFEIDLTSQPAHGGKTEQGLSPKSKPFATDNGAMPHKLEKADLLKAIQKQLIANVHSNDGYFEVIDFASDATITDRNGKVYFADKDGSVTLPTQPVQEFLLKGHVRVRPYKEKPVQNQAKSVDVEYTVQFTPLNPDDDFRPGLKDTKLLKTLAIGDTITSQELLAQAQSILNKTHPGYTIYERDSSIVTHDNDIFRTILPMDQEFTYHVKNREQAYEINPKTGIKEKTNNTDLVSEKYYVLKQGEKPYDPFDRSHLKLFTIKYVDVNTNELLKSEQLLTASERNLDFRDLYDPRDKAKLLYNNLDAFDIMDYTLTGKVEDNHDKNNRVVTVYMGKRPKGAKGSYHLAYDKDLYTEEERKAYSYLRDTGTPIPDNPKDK

Streptococcus = experiment: GAS UMAA2166 growth inhibition – luminescence, BacTiterGlo, counter-screen for streptokinase expression inhibitor project, dose response (AID 1915); format: functional, organism-based;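 further: potency for reduction of bacterial viability or growth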

Chain of Paired box protein Pax-8 (Q06710 whole entry): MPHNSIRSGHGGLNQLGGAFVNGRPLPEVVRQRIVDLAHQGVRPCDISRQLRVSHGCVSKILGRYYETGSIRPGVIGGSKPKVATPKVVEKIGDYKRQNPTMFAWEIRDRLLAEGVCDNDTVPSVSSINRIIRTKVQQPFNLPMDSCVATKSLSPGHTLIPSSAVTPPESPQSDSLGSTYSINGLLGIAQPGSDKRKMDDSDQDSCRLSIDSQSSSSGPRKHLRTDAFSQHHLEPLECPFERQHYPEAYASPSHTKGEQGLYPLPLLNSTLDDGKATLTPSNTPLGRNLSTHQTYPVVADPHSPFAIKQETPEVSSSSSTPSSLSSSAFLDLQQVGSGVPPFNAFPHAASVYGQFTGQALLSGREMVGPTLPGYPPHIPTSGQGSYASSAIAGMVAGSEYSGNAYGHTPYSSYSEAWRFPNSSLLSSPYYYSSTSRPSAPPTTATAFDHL
Chain of Luciferin 4-monooxygenase (P08659 whole entry): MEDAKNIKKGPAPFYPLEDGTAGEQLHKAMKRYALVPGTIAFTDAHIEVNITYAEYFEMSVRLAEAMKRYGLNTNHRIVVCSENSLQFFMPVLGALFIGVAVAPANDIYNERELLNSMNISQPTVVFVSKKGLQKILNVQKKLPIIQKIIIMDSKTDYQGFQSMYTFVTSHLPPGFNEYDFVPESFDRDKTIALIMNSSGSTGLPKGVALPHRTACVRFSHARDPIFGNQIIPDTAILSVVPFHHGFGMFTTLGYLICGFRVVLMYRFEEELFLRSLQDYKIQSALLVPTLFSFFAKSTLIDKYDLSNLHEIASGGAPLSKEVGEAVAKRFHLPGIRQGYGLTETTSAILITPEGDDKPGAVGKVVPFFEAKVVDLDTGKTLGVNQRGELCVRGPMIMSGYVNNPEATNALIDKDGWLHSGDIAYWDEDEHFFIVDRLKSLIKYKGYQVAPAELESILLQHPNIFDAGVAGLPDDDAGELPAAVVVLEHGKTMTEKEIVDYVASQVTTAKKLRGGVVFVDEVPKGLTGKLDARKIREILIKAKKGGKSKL

## CCCOC(=O)c1cc(NC(=O)/C=C/c2ccccc2)ccc1O
[1]
  CC50: 20.4 µM (active)

## CN(C)c1ccc(/C=C2/NC(=O)NC2=O)cc1
[2]
  IC50: 51.2 µM (active)

## COc1cc(N(C)C)c([N+](=O)[O-])cc1C(=O)N1CCN(Cc2ccccc2)CC1
HEK293
  AC50: 12.8 µM (active)

## COc1ccc(Cl)cc1C(=O)NCc1ccc2c(c1)OCO2
[1]
  CC50: 34.4 µM (active)

## O=C(/C=C/Nc1ccc(Br)cc1F)c1ccccc1
[3]
  EC50: 9.38 µM (active)
[4]
  EC50: 4.27 µM (active)
[5]
  EC50: 0.542 µM (active)
[6]
  EC50: 4.16 µM (active)
HEK293
  AC50: 1.65 µM (active)
Protein skinhead-1
  IC50: > 100 µM (inactive)

## COc1cc2c(cc1OC)CN(C(=O)c1ccc3[nH]c(C)c(C)c3c1)CC2
[1]
  CC50: > 50 µM (active)

## O=C(C(=O)N1CCOCC1)c1cn(Cc2ccc(F)cc2)c2ccccc12
[7]
  IC50: > 20 µM (inactive)

## COC(=O)c1ccc(NCc2c(O)ccc(O)c2Br)cc1Cl
[2]
  IC50: 57.6 µM (active)

## Cc1cccc(/N=C2/Sc3nc4c(C)c(C)ccc4cc3CN2CCN2CCOCC2)c1
[1]
  CC50: 16.1 µM (active)

## CN(/N=C/c1ccc(O)cc1O)c1nc(-c2ccccc2)cc(-c2ccccc2)n1
Paired box protein Pax-8
  AC50: 26.9 µM (active)

## Cc1ccc(-c2cc(C(=O)N/N=C/C=C/c3ccco3)c3ccccc3n2)cc1C
HEK293
  AC50: 1.63 µM (active)

## CC1=Nc2ncnn2C(c2cccnc2)/C1=C(\O)OC1CCCCC1 (stereo not given)
[8]
  EC50: 2.35 µM (active)
[9]
  EC50: > 60 µM (not active)
Paired box protein Pax-8
  AC50: 36.1 µM (active)

## O=C(CCN1CCN(C/C=C/c2ccccc2)CC1)Nc1ccc(Cl)cc1
cells
  IC50: 34.6 µM (active)

## O=C(Nc1ccccc1)N1CCN(c2nc(-c3ccccc3)ns2)CC1
[7]
  IC50: > 20 µM (inactive)

## O=c1c2sccc2[nH]c(=S)n1-c1ccccc1
[7]
  IC50: > 20 µM (inactive)

## COC(=O)N/N=C/c1c[n+]([O-])c2ccccc2[n+]1[O-] [CARBADOX]
[10]
  EC50: 9.12 µM (active)
Streptokinase A
  EC50: > 150 µM (not active)
Streptococcus
  EC50: 11.5 µM (active)
